Source: patent US7410975B2, “Small molecule toll-like receptor (TLR) antagonists” (Coley Pharmaceutical Group, Inc., priority 2003, dated 2008)

These compounds were tested against T1, human TLR7 (hTLR7) (Homo sapiens, UniProt Q9NYK1) (assay: Antagonist screen, hTLR7-NFκB-293 cells, NF-κB-luciferase reporter, with EC50 of R848). Settings: compound at 0.5, 5, 50 μg/ml; EC50 concentration of R848; 16 h; NF-κB-luciferase.
T1 construct: expressed in transfected cells
T1 sequence (Q9NYK1 27-1049): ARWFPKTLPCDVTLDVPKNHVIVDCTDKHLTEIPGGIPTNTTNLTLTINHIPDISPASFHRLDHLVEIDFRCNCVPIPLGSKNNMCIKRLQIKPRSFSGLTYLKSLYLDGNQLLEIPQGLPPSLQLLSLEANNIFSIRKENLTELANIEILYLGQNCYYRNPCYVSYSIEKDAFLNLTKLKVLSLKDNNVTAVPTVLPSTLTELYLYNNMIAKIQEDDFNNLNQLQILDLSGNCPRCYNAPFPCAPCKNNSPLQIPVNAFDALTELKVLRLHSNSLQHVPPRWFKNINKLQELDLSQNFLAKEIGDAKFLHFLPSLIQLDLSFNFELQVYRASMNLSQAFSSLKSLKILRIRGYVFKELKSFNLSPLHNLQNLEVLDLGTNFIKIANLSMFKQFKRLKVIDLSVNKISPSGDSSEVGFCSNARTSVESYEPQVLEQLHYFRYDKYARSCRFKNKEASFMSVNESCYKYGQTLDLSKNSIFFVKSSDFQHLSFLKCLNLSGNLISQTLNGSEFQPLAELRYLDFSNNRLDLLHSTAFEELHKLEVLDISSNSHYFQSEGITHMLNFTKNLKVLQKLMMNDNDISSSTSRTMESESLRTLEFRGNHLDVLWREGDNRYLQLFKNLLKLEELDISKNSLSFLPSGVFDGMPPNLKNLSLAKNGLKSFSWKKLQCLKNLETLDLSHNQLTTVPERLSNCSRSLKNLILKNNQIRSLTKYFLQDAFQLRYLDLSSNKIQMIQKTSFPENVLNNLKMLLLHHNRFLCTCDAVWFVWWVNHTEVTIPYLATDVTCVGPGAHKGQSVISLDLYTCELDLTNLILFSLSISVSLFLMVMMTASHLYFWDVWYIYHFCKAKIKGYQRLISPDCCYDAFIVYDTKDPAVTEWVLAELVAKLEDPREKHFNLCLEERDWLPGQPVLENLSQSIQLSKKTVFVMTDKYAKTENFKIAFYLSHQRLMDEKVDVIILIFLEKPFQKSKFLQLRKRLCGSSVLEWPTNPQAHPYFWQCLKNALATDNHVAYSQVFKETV
Type: cell-based
Protocol: The method is described in greater detail as follows. The cells for each individual cell clone (hTLR3-NFκB-293, hTLR7-NFκB-293, hTLR8-NFκB-293 and hTLR9-NFκB-293) were counted and seeded one day before the stimulation at 1.5×10^4 cells per well in 96-well cell culture plates. To become adherent the cells were incubated after seeding overnight at 37° C. in 5% CO2 humidified air.
The screen for each compound was performed at the same time for all of the receptors TLR3, TLR7, TLR8 and TLR9. Up to fifteen test compounds, each assayed in duplicate at each of three different final concentrations (0.5 μg/ml, 5 μg/ml, and 50 μg/ml), were used for 16 h cell stimulation on a single multiwell culture plate. A 4× final concentration master plate was created to prepare the different test compounds before they were added to the cells.
Controls were added as duplicates individually for each cell clone on the cell culture plate. Positive controls were used as follows (final concentrations): 50 μg/ml poly(I:C) for hTLR3-NFκB-293; 8 μM resiquimod (R848) for hTLR7-NFκB-293; 30 μM R848 for hTLR8-NFκB-293; and 2.5 μM CpG-ODN 2006 for hTLR9-NFκB-293. Media alone was used as negative control. After addition of controls and small molecules, the cell clones were additionally stimulated with the EC50 concentration of the appropriate receptor-specific ligand.
The mean value of wells H2 and H5 (each with cells and EC50 concentration of the appropriate receptor-specific ligand) divided by the mean of wells H3 and H6 (each with cells alone) yielded the baseline response (i.e., fold induction of luciferase activity) to EC50 concentration of the appropriate receptor-specific ligand.
After 16 h stimulation the supernatant was removed and the cells treated with lysis buffer and stored at −80° C. before measuring.
For each screen result a graphical documentation was performed.
The baseline result (measured with addition of the EC50 concentration of the receptor-specific ligand) for each cell culture plate was measured as described above. Antagonistic effects were measured by down regulation compared to the baseline. Antagonists were scored as follows: • 13: compounds for which there was clear down regulation at 0.5 μg/ml, 5 μg/ml, and 50 μg/ml; • 12: compounds for which there was clear down regulation at 5 μg/ml and 50 μg/ml; • 11: compounds for which there was clear down regulation only at 50 μg/ml; • —: compounds for which there was no clear down regulation even at 50 μg/ml. Agonists
Results were expressed as fold induction over baseline luciferase activity measured in the absence of R848. […] Additional screening was performed in like manner using additional small molecules selected from another library or specifically prepared for this purpose. Scoring is reported as above but as applied to TLR7.
Maprotilinehydrochloride [compound 346] was tested, and the “hTLR7 (inhibitory effect, antagonist score)” value was 11 (compounds for which there was clear down regulation only at 50 μg/ml).
In the case of `C[N+]12CCC(CC1)C(OC(=O)C(O)(c1ccccc1)c1ccccc1)C2.[Br-]` (stereo not drawn) [compound 822, Clidinium bromide], the “hTLR7 (inhibitory effect, antagonist score)” value was “— (compounds for which there was no clear down regulation even at 50 μg/ml)”.
In the case of `CCN(CC)C(C)CN1c2ccccc2Sc2ccccc21.Cl` (stereo not drawn) [compound 840, Ethopropazinehydrochloride], the “hTLR7 (inhibitory effect, antagonist score)” value was “— (compounds for which there was no clear down regulation even at 50 μg/ml)”.
For “Prochlorperazinedimaleate [compound 399]”, the “hTLR7 (inhibitory effect, antagonist score)” value was 12 (compounds for which there was clear down regulation at 5 μg/ml and 50 μg/ml).
`c1ccc2c(c1)[nH]c1cnccc12` [compound 470, norharman] was tested, and the “hTLR7 (inhibitory effect, antagonist score)” value was 11 (compounds for which there was clear down regulation only at 50 μg/ml).
With `CCN(CC)CCCN(CC(=O)C1c2ccc(Cl)cc2NC(=O)c2ccccc21)C(=O)c1ccccc1` (stereo not drawn) [compound 1013] the “hTLR7 (inhibitory effect, antagonist score)” value was “— (compounds for which there was no clear down regulation even at 50 μg/ml)”.
`Cl.Cl.OCCN1CCN(CC/C=C2/c3ccccc3Sc3ccc(C(F)(F)F)cc32)CC1` [compound 340, Flupentixoldihydrochloride cis-(Z)] was tested, and the “hTLR7 (inhibitory effect, antagonist score)” value was 11 (compounds for which there was clear down regulation only at 50 μg/ml).
With `CN(CCO)C(=O)c1cccc2c1-c1ccccc1C2=O` [compound 890] the “hTLR7 (inhibitory effect, antagonist score)” value was 11 (compounds for which there was clear down regulation only at 50 μg/ml).
For “Trifluoperazinedihydrochloride [compound 313]”, the “hTLR7 (inhibitory effect, antagonist score)” value was 11 (compounds for which there was clear down regulation only at 50 μg/ml).
In the case of `Clc1ccc(C(c2ccccc2Cl)C(Cl)Cl)cc1` (stereo not drawn) [compound 833, Mitotane], the “hTLR7 (inhibitory effect, antagonist score)” value was 11 (compounds for which there was clear down regulation only at 50 μg/ml).
For `COC(=O)c1cccc(C(O)(c2ccccc2)c2ccccc2)c1S(=O)(=O)C(C)(C)C` [compound 1187], the “hTLR7 (inhibitory effect, antagonist score)” value was 12 (compounds for which there was clear down regulation at 5 μg/ml and 50 μg/ml).
With `O=C1c2ccccc2C(=O)c2c1ccc1c(=O)n(C3CCCCC3)[nH]c21` [compound 1015] the “hTLR7 (inhibitory effect, antagonist score)” value was “— (compounds for which there was no clear down regulation even at 50 μg/ml)”.
`COC(=O)[C@H]1[C@H]2C[C@@H]3c4[nH]c5cc(OC)ccc5c4CCN3C[C@H]2C[C@@H](OC(=O)/C=C/c2cc(OC)c(OC)c(OC)c2)[C@@H]1OC` [compound 568, Rescinnamin] was tested, and the “hTLR7 (inhibitory effect, antagonist score)” value was “— (compounds for which there was no clear down regulation even at 50 μg/ml)”.
With `Cc1cccc(CN2CCN(C(c3ccccc3)c3ccc(Cl)cc3)CC2)c1.Cl.Cl` (stereo not drawn) [compound 457, Meclozinedihydrochioride] the “hTLR7 (inhibitory effect, antagonist score)” value was “— (compounds for which there was no clear down regulation even at 50 μg/ml)”.
With `CCOCCOC(=O)c1cc([N+](=O)[O-])cc2c1-c1c(cc([N+](=O)[O-])cc1[N+](=O)[O-])C2=C(C#N)C#N` [compound 1241] the “hTLR7 (inhibitory effect, antagonist score)” value was “— (compounds for which there was no clear down regulation even at 50 μg/ml)”.
For `O=C1c2ccccc2C(=O)c2c1ccc1c(=O)n(-c3ccccc3)[nH]c21` [compound 1042], the “hTLR7 (inhibitory effect, antagonist score)” value was 12 (compounds for which there was clear down regulation at 5 μg/ml and 50 μg/ml).
With `Nc1cccc2c1C(=O)c1cccc(N)c1C2=O` [compound 413, Anthraquinone,1,5-diamino] the “hTLR7 (inhibitory effect, antagonist score)” value was “— (compounds for which there was no clear down regulation even at 50 μg/ml)”.
In the case of `O=c1[nH]c2ccccc2n1C1CCN(CCCC(c2ccc(F)cc2)c2ccc(F)cc2)CC1` [compound 308, Pimozide], the “hTLR7 (inhibitory effect, antagonist score)” value was 11 (compounds for which there was clear down regulation only at 50 μg/ml).
In the case of `CN1CCC2C(C1)c1ccccc1N2Cc1ccccc1` (stereo not drawn) [compound 455, Mebhydroline 1,5 naphtalenedisulfonate], the “hTLR7 (inhibitory effect, antagonist score)” value was “— (compounds for which there was no clear down regulation even at 50 μg/ml)”.
`COC(=O)c1cccc2c1-c1ccccc1/C2=N/O` [compound 904] was tested, and the “hTLR7 (inhibitory effect, antagonist score)” value was 12 (compounds for which there was clear down regulation at 5 μg/ml and 50 μg/ml).
In the case of `CN(C)CC/C=C1/c2ccccc2CSc2ccccc21.Cl` [compound 488, Dosulepin hydrochloride], the “hTLR7 (inhibitory effect, antagonist score)” value was “— (compounds for which there was no clear down regulation even at 50 μg/ml)”.
In the case of `CC[C@]12CCCN3CCc4c(n(c5ccccc45)[C@](O)(C(=O)OC)C1)[C@@H]32` [compound 636, Epivincamine], the “hTLR7 (inhibitory effect, antagonist score)” value was “— (compounds for which there was no clear down regulation even at 50 μg/ml)”.
In the case of `Cc1cc(OC(=O)C2C3CCCCC32)c(C(C)C)cc1C1(c2cc(C(C)C)c(OC(=O)C3C4CCCCC43)cc2C)OC(=O)c2ccccc21` (stereo not drawn) [compound 974], the “hTLR7 (inhibitory effect, antagonist score)” value was 11 (compounds for which there was clear down regulation only at 50 μg/ml).
For `O=C(O)c1cc(C(c2ccc(O)c(C(=O)O)c2)C(Cl)(Cl)Cl)ccc1O` [compound 884], the “hTLR7 (inhibitory effect, antagonist score)” value was 11 (compounds for which there was clear down regulation only at 50 μg/ml).
`CC1CCN(C(=O)c2cccc3c2-c2ccccc2C3=O)CC1` [compound 1243] was tested, and the “hTLR7 (inhibitory effect, antagonist score)” value was 11 (compounds for which there was clear down regulation only at 50 μg/ml).
For `CN(C)CCC=C1c2ccccc2CCc2ccccc21.Cl` [compound 74, Amitryptilinehydrochloride], the “hTLR7 (inhibitory effect, antagonist score)” value was 11 (compounds for which there was clear down regulation only at 50 μg/ml).
`CC(CN(C)C)CN1c2ccccc2Sc2ccccc21.CC(CN(C)C)CN1c2ccccc2Sc2ccccc21.O=C(O)C(O)C(O)C(=O)O` (stereo not drawn) [compound 842, Trimeprazine tartrate] was tested, and the “hTLR7 (inhibitory effect, antagonist score)” value was “— (compounds for which there was no clear down regulation even at 50 μg/ml)”.
With `O=C1c2c(O)cccc2Cc2cccc(O)c21` [compound 43, Anthralin] the “hTLR7 (inhibitory effect, antagonist score)” value was “— (compounds for which there was no clear down regulation even at 50 μg/ml)”.
For `CN1CCN(C(c2ccccc2)c2ccccc2)CC1.Cl` [compound 510, Cyclizine hydrochloride], the “hTLR7 (inhibitory effect, antagonist score)” value was “— (compounds for which there was no clear down regulation even at 50 μg/ml)”.
For `CN(C)CCCN1c2ccccc2Sc2ccccc21.Cl` [compound 693, Promazinehydrochloride], the “hTLR7 (inhibitory effect, antagonist score)” value was 12 (compounds for which there was clear down regulation at 5 μg/ml and 50 μg/ml).
